Data published in the CheMixHub viscosity set.
“And” between values parts separate entries of the source, which are not always exact repeats. Equal values may be shown once.

Assay: xn = mol fraction of the nth substance listed

N[C@@H](CO)C(=O)O + O
Details | viscosity
298 K, 101 kPa, x1 = 0.0004 | 0.8836 mPa·s
298 K, 101 kPa, x1 = 0.0007 | 0.8853 mPa·s
298 K, 101 kPa, x1 = 0.001 | 0.889 mPa·s and 0.8901 mPa·s
298.15 K, 101 kPa, x1 = 8.92e-05 | 0.9214 mPa·s
298.15 K, 101 kPa, x1 = 0.000181 | 0.9346 mPa·s
298.15 K, 101 kPa, x1 = 0.00045 | 0.9108 mPa·s
298.15 K, 101 kPa, x1 = 0.000898 | 0.9225 mPa·s
298.15 K, 101 kPa, x1 = 0.00135 | 0.9328 mPa·s
298.15 K, 101 kPa, x1 = 0.00178 | 0.9489 mPa·s
298.15 K, 101 kPa, x1 = 0.001798 | 0.942 mPa·s
298.15 K, 101 kPa, x1 = 0.002245 | 0.9508 mPa·s
298.15 K, 101 kPa, x1 = 0.002695 | 0.9596 mPa·s
298.15 K, 101 kPa, x1 = 0.003143 | 0.9678 mPa·s
298.15 K, 101 kPa, x1 = 0.00359 | 0.9758 mPa·s
298.15 K, 101 kPa, x1 = 0.003599 | 0.9614 mPa·s
298.15 K, 101 kPa, x1 = 0.005265 | 0.9714 mPa·s
298.15 K, 101 kPa, x1 = 0.007246 | 0.9945 mPa·s
298.15 K, 101 kPa, x1 = 0.008825 | 1.011 mPa·s
298.15 K, 101 kPa, x1 = 0.01096 | 1.024 mPa·s
298.15 K, 101 kPa, x1 = 0.01198 | 1.04 mPa·s
298.15 K, 101 kPa, x1 = 0.01387 | 1.059 mPa·s
298.15 K, 101.3 kPa, x1 = 0.0008915 | 0.901 mPa·s
298.15 K, 101.3 kPa, x1 = 0.001352 | 0.905 mPa·s
298.15 K, 101.3 kPa, x1 = 0.001784 | 0.909 mPa·s
298.15 K, 101.3 kPa, x1 = 0.002244 | 0.913 mPa·s
298.15 K, 101.3 kPa, x1 = 0.002683 | 0.917 mPa·s
303.15 K, 101 kPa, x1 = 0.00045 | 0.8151 mPa·s
303.15 K, 101 kPa, x1 = 0.000898 | 0.8252 mPa·s
303.15 K, 101 kPa, x1 = 0.00135 | 0.834 mPa·s
303.15 K, 101 kPa, x1 = 0.001798 | 0.8418 mPa·s
303.15 K, 101 kPa, x1 = 0.002245 | 0.8494 mPa·s
303.15 K, 101 kPa, x1 = 0.002695 | 0.8566 mPa·s
303.15 K, 101 kPa, x1 = 0.003143 | 0.8637 mPa·s
303.15 K, 101 kPa, x1 = 0.00359 | 0.8705 mPa·s
303.15 K, 101.3 kPa, x1 = 0.0008915 | 0.807 mPa·s
303.15 K, 101.3 kPa, x1 = 0.001352 | 0.811 mPa·s
303.15 K, 101.3 kPa, x1 = 0.001784 | 0.815 mPa·s
305.15 K, 101 kPa, x1 = 0.0003602 | 0.7851 mPa·s
305.15 K, 101 kPa, x1 = 0.0007201 | 0.7891 mPa·s
305.15 K, 101 kPa, x1 = 0.00108 | 0.7935 mPa·s
305.15 K, 101 kPa, x1 = 0.001439 | 0.7984 mPa·s
305.15 K, 101 kPa, x1 = 0.001798 | 0.8025 mPa·s
305.15 K, 101 kPa, x1 = 0.002157 | 0.8071 mPa·s
308.15 K, 101 kPa, x1 = 8.92e-05 | 0.7615 mPa·s
308.15 K, 101 kPa, x1 = 0.000181 | 0.7756 mPa·s
308.15 K, 101 kPa, x1 = 0.00045 | 0.7347 mPa·s
308.15 K, 101 kPa, x1 = 0.000898 | 0.7434 mPa·s
308.15 K, 101 kPa, x1 = 0.00135 | 0.751 mPa·s
308.15 K, 101 kPa, x1 = 0.00178 | 0.7901 mPa·s
308.15 K, 101 kPa, x1 = 0.001798 | 0.7578 mPa·s
308.15 K, 101 kPa, x1 = 0.002245 | 0.7641 mPa·s
308.15 K, 101 kPa, x1 = 0.002695 | 0.7704 mPa·s
308.15 K, 101 kPa, x1 = 0.003143 | 0.7764 mPa·s
308.15 K, 101 kPa, x1 = 0.00359 | 0.7822 mPa·s
308.15 K, 101 kPa, x1 = 0.003599 | 0.8056 mPa·s
308.15 K, 101 kPa, x1 = 0.005265 | 0.8198 mPa·s
308.15 K, 101 kPa, x1 = 0.007246 | 0.8356 mPa·s
308.15 K, 101 kPa, x1 = 0.008825 | 0.8542 mPa·s
308.15 K, 101 kPa, x1 = 0.01096 | 0.8741 mPa·s
308.15 K, 101 kPa, x1 = 0.01198 | 0.8898 mPa·s
308.15 K, 101 kPa, x1 = 0.01387 | 0.9046 mPa·s
310.15 K, 101 kPa, x1 = 0.0003602 | 0.7043 mPa·s
310.15 K, 101 kPa, x1 = 0.0007201 | 0.708 mPa·s
310.15 K, 101 kPa, x1 = 0.00108 | 0.7119 mPa·s
310.15 K, 101 kPa, x1 = 0.001439 | 0.7158 mPa·s
310.15 K, 101 kPa, x1 = 0.001798 | 0.7189 mPa·s
310.15 K, 101 kPa, x1 = 0.002157 | 0.7232 mPa·s
313.15 K, 101 kPa, x1 = 0.00045 | 0.6665 mPa·s
313.15 K, 101 kPa, x1 = 0.000898 | 0.6741 mPa·s
313.15 K, 101 kPa, x1 = 0.00135 | 0.6807 mPa·s
313.15 K, 101 kPa, x1 = 0.001798 | 0.6867 mPa·s
313.15 K, 101 kPa, x1 = 0.002245 | 0.6922 mPa·s
313.15 K, 101 kPa, x1 = 0.002695 | 0.6976 mPa·s
313.15 K, 101 kPa, x1 = 0.003143 | 0.7029 mPa·s
313.15 K, 101 kPa, x1 = 0.00359 | 0.7078 mPa·s
315.15 K, 101 kPa, x1 = 0.0003602 | 0.6498 mPa·s
315.15 K, 101 kPa, x1 = 0.0007201 | 0.6537 mPa·s
315.15 K, 101 kPa, x1 = 0.00108 | 0.6566 mPa·s
315.15 K, 101 kPa, x1 = 0.001439 | 0.66 mPa·s
315.15 K, 101 kPa, x1 = 0.001798 | 0.6629 mPa·s
315.15 K, 101 kPa, x1 = 0.002157 | 0.6666 mPa·s
318.15 K, 101 kPa, x1 = 8.92e-05 | 0.6512 mPa·s
318.15 K, 101 kPa, x1 = 0.000181 | 0.6602 mPa·s
318.15 K, 101 kPa, x1 = 0.00045 | 0.6097 mPa·s
318.15 K, 101 kPa, x1 = 0.000898 | 0.6164 mPa·s
318.15 K, 101 kPa, x1 = 0.00135 | 0.6222 mPa·s
318.15 K, 101 kPa, x1 = 0.00178 | 0.6723 mPa·s
318.15 K, 101 kPa, x1 = 0.001798 | 0.6275 mPa·s
318.15 K, 101 kPa, x1 = 0.002245 | 0.6324 mPa·s
318.15 K, 101 kPa, x1 = 0.002695 | 0.6371 mPa·s
318.15 K, 101 kPa, x1 = 0.003143 | 0.6417 mPa·s
318.15 K, 101 kPa, x1 = 0.00359 | 0.6461 mPa·s
318.15 K, 101 kPa, x1 = 0.003599 | 0.6845 mPa·s
318.15 K, 101 kPa, x1 = 0.005265 | 0.6953 mPa·s
318.15 K, 101 kPa, x1 = 0.007246 | 0.7012 mPa·s
318.15 K, 101 kPa, x1 = 0.008825 | 0.7125 mPa·s
318.15 K, 101 kPa, x1 = 0.01096 | 0.7242 mPa·s
318.15 K, 101 kPa, x1 = 0.01198 | 0.7345 mPa·s
318.15 K, 101 kPa, x1 = 0.01387 | 0.7466 mPa·s
